Source: ChEMBL document CHEMBL5316326, “Discovery of a Novel Covalent EZH2 Inhibitor Based on Tazemetostat Scaffold for the Treatment of Ovarian Cancer” (J Med Chem, 2023)
The source made the active and inactive calls. The rule behind the calls is not given here.

How the values were obtained:
[1] = molecular target: T1, Histone-lysine N-methyltransferase EZH2 (Homo sapiens, UniProt Q15910); assay: Inhibition of wild type EZH2 (unknown origin) by AlphaLlSA assay
Target sequence in this assay (Q15910 whole entry): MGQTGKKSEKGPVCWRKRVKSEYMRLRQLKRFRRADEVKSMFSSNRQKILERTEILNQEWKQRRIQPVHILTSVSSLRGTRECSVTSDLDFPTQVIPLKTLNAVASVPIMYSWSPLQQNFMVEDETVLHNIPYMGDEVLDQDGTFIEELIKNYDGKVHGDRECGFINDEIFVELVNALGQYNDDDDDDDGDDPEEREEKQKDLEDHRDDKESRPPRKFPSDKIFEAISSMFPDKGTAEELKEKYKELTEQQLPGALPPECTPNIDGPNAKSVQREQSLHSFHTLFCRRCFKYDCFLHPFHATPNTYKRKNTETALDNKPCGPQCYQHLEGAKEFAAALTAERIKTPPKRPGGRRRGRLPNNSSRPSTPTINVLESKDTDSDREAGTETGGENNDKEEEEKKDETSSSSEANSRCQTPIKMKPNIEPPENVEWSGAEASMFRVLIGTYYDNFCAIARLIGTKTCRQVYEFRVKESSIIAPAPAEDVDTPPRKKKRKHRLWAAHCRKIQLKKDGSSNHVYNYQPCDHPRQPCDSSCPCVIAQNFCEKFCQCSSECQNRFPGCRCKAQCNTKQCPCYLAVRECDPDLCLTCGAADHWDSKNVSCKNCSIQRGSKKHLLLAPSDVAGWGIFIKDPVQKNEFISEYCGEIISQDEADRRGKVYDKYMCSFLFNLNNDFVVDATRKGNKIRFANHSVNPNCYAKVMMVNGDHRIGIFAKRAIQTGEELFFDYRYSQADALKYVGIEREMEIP

[2] = system: SK-OV-3; assay: Antiproliferative activity against human SK-OV-3 cells assessed as inhibition of cell proliferation incubated for 72 hrs by MTT assay; type: functional, cell-based; conditions: SK-OV-3, 72 h
[3] = system: PA-1; assay: Antiproliferative activity against human PA-1 cells assessed as reduction in cell viability at 10 uM incubated for 3 days followed by compound washout and measured after 4 days by microscopy analysis; type: functional, cell-based; conditions: time 3.0 day
[4] = system: HEY; assay: Antiproliferative activity against human HEY cells assessed as inhibition of cell proliferation incubated for 72 hrs by MTT assay; type: functional, cell-based
[5] = system: MCF7; assay: Antiproliferative activity against human MCF7 cells assessed as inhibition of cell proliferation incubated for 72 hrs by MTT assay; type: functional, cell-based; conditions: MCF7, 72 h
[6] = system: 4T1; assay: Antiproliferative activity against mouse 4T1 cells assessed as inhibition of cell proliferation incubated for 72 hrs by MTT assay; type: functional, cell-based; conditions: 4T1, 72 h
[7] = system: BT-549; assay: Antiproliferative activity against human BT-549 cells assessed as inhibition of cell proliferation incubated for 72 hrs by MTT assay; type: functional, cell-based; conditions: BT-549, 72 h
[8] = system: ES-2; assay: Antiproliferative activity against human ES2 cells assessed as inhibition of cell proliferation incubated for 72 hrs by MTT assay; type: functional, cell-based; conditions: ES-2, 72 h
[9] = system: OVCAR-3; assay: Antiproliferative activity against human OVCAR-3 cells assessed as inhibition of cell proliferation incubated for 72 hrs by MTT assay; type: functional, cell-based; conditions: OVCAR-3, 72 h
[10] = system: PA-1; assay: Inhibition of colony formation in human PA-1 cells assessed as reduction in size of colonies at 0.25 to 10 uM incubated for 14 days with medium change every 3 days by crystal violet staining method; type: functional, cell-based; conditions: dose 0.25-10 µM, time 14.0 day
[11] = molecular target: T1, Histone-lysine N-methyltransferase EZH2; assay: Inhibition of EZH2 methyltransferase activity in human A2780 cells assessed as reduction in H3K27me3 level incubated for 3 days by Western blot analysis; type: cell-based
Target sequence in this assay (Q15910 whole entry): as above

[12] = system: A549; assay: Antiproliferative activity against human A549 cells assessed as inhibition of cell proliferation incubated for 72 hrs by MTT assay; type: functional, cell-based; conditions: A549, 72 h
[13] = system: OAW-42; assay: Antiproliferative activity against human OAW-42 cells assessed as inhibition of cell proliferation incubated for 72 hrs by MTT assay; type: functional, cell-based; conditions: OAW-42, 72 h
[14] = system: A2780; assay: Inhibition of colony formation in human A2780 cells assessed as reduction in size of colonies at 0.25 to 10 uM incubated for 14 days with medium change every 3 days by crystal violet staining method; type: functional, cell-based; conditions: dose 0.25-10 µM, time 14.0 day
[15] = system: PA-1; assay: Antiproliferative activity against human PA-1 cells assessed as inhibition of cell proliferation incubated for 72 hrs by MTT assay; type: functional, cell-based; conditions: PA-1, 72 h
[16] = system: SK-BR-3; assay: Antiproliferative activity against human SK-BR-3 cells assessed as inhibition of cell proliferation incubated for 72 hrs by MTT assay; type: functional, cell-based; conditions: SK-BR-3, 72 h
[17] = molecular target: T1, Histone-lysine N-methyltransferase EZH2; assay: Binding affinity to wild type recombinant EZH2 (494 to 737 residues) (unknown origin) expressed in Escherichia coli assessed as adduct formation incubated for 2 hrs by LC-MS analysis
Target sequence in this assay (Q15910 whole entry, looked up): as the sequence (Q15910 whole entry) above

[18] = system: A2780; assay: Antiproliferative activity against human A2780 cells assessed as inhibition of cell proliferation incubated for 72 hrs by MTT assay; type: functional, cell-based; conditions: A2780, 72 h
[19] = system: PA-1; assay: Inhibition of colony formation in human PA-1 cells assessed as reduction in number of colonies at 0.25 to 10 uM incubated for 14 days with medium change every 3 days by crystal violet staining method; type: functional, cell-based; conditions: dose 0.25-10 µM, time 14.0 day
[20] = system: NCI-H1703; assay: Antiproliferative activity against human NCI-H1703 cells assessed as inhibition of cell proliferation incubated for 72 hrs by MTT assay; type: functional, cell-based; conditions: NCI-H1703, 72 h
[21] = system: A2780; assay: Inhibition of colony formation in human A2780 cells assessed as reduction in number of colonies at 0.25 to 10 uM incubated for 14 days with medium change every 3 days by crystal violet staining method; type: functional, cell-based; conditions: dose 0.25-10 µM, time 14.0 day
[22] = Antiproliferative activity against human COV362 cells assessed as inhibition of cell proliferation incubated for 72 hrs by MTT assay; type: functional, cell-based; conditions: COV362, 72 h
[23] = system: PA-1; assay: Antitumor activity against human PA-1 cells xenografted in BALB/C nude mouse assessed as tumor growth inhibition at 150 mg/kg,po BID for 21 days; type: functional; conditions: PA-1, 504 h, time 21 day, read-out: TGI

| Structure (SMILES) | IC50 [1] | IC50 [2] | IC50 [4] | IC50 [5] | IC50 [6] | IC50 [7] | IC50 [8] | IC50 [9] | IC50 [12] | IC50 [13] | IC50 [15] | IC50 [16] | IC50 [18] | IC50 [20] | IC50 [22] | other results |
| --- | --- | --- | --- | --- | --- | --- | --- | --- | --- | --- | --- | --- | --- | --- | --- | --- |
| CCOCCNC(=O)/C(C)=C/C[C@@]12OC(C)(C)C3C[C@@H](C=C4C(=O)c5c(O)c(C/C=C(\C)CCC=C(C)C)c(O)c(CC=C(C)C)c5O[C@]431)C2=O (single isomer, unassigned) | 1100 nM | – | – | – | – | – | – | – | – | – | – | – | – | – | – | – |
| CCC(=O)Nc1ccc(C)c(-c2cc(C(=O)NCc3c(C)cc(C)[nH]c3=O)c(C)c(N(CC)C3CCOCC3)c2)c1 | 3.01 nM | > 100 µM | > 100 µM | > 100 µM | > 100 µM | > 100 µM | 89.5 µM | > 100 µM | > 100 µM | > 100 µM | 78.3 µM | > 100 µM | 60.4 µM | 69 µM | > 100 µM | Activity [3]: inactive; inhibition [10]: Dose-Dependent Effect; IC50 [11]: 4.72 µM; inhibition [14]: Dose-Dependent Effect; Activity [17]: inactive; inhibition [19]: Dose-Dependent Effect; inhibition [21]: Dose-Dependent Effect |
| C=CC(=O)Nc1cccc(-c2cc(C(=O)NCc3c(C)cc(C)[nH]c3=O)c(C)c(N(CC)C3CCOCC3)c2)c1 | 1.64 nM | 41.8 µM | 66.7 µM | 63.3 µM | 31 µM | 60.2 µM | 38.6 µM | > 100 µM | 33.3 µM | > 100 µM | 24.7 µM | 66.2 µM | 15.7 µM | 37.4 µM | > 100 µM | – |
| CCC(=O)Nc1cccc(-c2cc(C(=O)NCc3c(C)cc(C)[nH]c3=O)c(C)c(N(CC)C3CCOCC3)c2)c1 | – | > 100 µM | > 100 µM | > 100 µM | 58.4 µM | > 100 µM | > 100 µM | > 100 µM | > 100 µM | > 100 µM | > 100 µM | > 100 µM | 34.4 µM | > 100 µM | > 100 µM | – |
| CCN(c1cc(-c2ccc(CN3CCOCC3)cc2)cc(C(=O)NCc2c(C)cc(C)[nH]c2=O)c1C)C1CCOCC1 [TAZEMETOSTAT] | – | 89.8 µM | > 100 µM | > 100 µM | 29.3 µM | 58.2 µM | 79 µM | > 100 µM | > 100 µM | > 100 µM | 46.6 µM | 67.1 µM | 47 µM | > 100 µM | > 100 µM | inhibition in vivo at 150 mg/kg [23]: 56.8%; Activity [3]: inactive |
| CC[C@H](C)n1cc(C)c2c(C(=O)NCc3c(C)cc(C)[nH]c3=O)cc(-c3ccc(N4CCNCC4)nc3)cc21 [GSK2816126] | – | 68.4 µM | > 100 µM | 18.8 µM | 10.4 µM | 23.3 µM | 32.2 µM | 29.8 µM | 23 µM | 55.4 µM | 12.2 µM | 15.5 µM | 12 µM | > 100 µM | > 100 µM | – |
| C=CC(=O)NCc1ccc(-c2cc(C(=O)NCc3c4c(c(C)[nH]c3=O)CCCC4)c(C)c(N(CC)C3CCOCC3)c2)cc1 | 10.8 nM | – | – | – | – | – | – | – | – | – | – | – | – | – | – | Activity [17]: inactive |
